Data set [1] relates to Human breast cancer cells MDA-MB-231. Kind of data set: Inhibition of proliferation of human breast cancer cell MDA-MB-231 (DAPI, In Cell Analyzer). Format: cell-based. Conditions: for IC50: Homo sapiens, MDA-MB-231, 72 hours incubation, read-out: IC50, proliferation of human breast cancer cell MDB-MA-231; for Inhibitory activity on proliferation of the MDA-MB-231 cell line, in words: experimental conclusion. The protocol:
200 μl of medium containing 0.2% DMSO (dimethylsulfoxide) was added into B2 to B10 of a 96-well plate; 300 μl of the above solution was added into B1; and • c. 100 μl of solution was taken from well B1, added into B2, and mixed well; then 100 μl of the resulting solution was taken and added into B3, and dilution was carried out in sequence to B9, so as to obtain standard solutions diluted by 3-fold sequentially. • (2) Preparation of Test Compound Solutions • a. […] 200 μl of medium containing 0.2% DMSO (dimethylsulfoxide) was added into H2 to H10 of the 96-well plate; and 300 μl of the above solution was added into H1; and • c. 100 μl of solution was taken from well H1, added into H2, and mixed well; then 100 μl of the resulting solution was taken and added into H3, and dilution was carried out in sequence to […], so as to obtain test compound solutions diluted by 3-fold sequentially.
2.3 Experimental Process: • 2.3.1: MDA-MB-231 cells were inoculated into a 96-well cell plate with black transparent bottom at 4000 cells/100 μl/well, and cultured overnight at 37° C.; • 2.3.2: The above samples were added at 100 μl/well to a culture plate inoculated with cells, gently patted to mix well, and incubated at 37° C. for 72 hours; • 2.3.3: Fixation: the cell plate was taken out, the medium was removed, and 50 μl of 4% paraformaldehyde was added per well to fix for 10 minutes; • 2.3.4: 50 μl of 0.1M glycine was added to neutralize for 10 minutes; • 2.3.5: 1×PBS (phosphate buffer pH 7.2) was used to wash twice; • 2.3.6: Permeabilization: 50 μl of 0.2% TRITON-X®100 (Triton) was added per well, and permeabilization was carried out at room temperature for 10 minutes; • 2.3.7: 1×PBS (Phosphate buffer pH 7.2) was used to wash twice; • 2.3.8: 5 mg/mL DAPI stock solution was diluted at a ratio of 1:5000 (final concentration of 1 μg/ml), and staining was performed at room temperature for 20 minutes; • 2.3.9: 1×PBS (Phosphate buffer pH 7.2) was used to wash three times; and • 2.3.10: Scanning and analysis were performed by an IN cell analyzer 2200.
The inhibition rate of each compound at each concentration point was calculated by the formula as follows and curve fitting was performed by GraphPad Prism 5 software to obtain the IC50 value.

Data set [2] in a line: Pharmacokinetic determination in mouse (LC/MS/MS of plasma). Format: in vivo, ICR mice. Conditions: for AUC(0-t): read-out: Area under curve AUC0-t; for AUC(0-inf): read-out: Area under curve AUC0-∞; for half-life: read-out: Half life T1/2 (converted); for MRT: read-out: Retention time MRT. How it is done: Pharmacokinetic Determination of Representative Compounds of this Disclosure in Mouse
The ICR mice were used as the test animals, and the concentrations of the drugs in the plasma of mice at different time points after intragastric administration and intravenous administration of the representative compound of the present disclosure were determined by LC/MS/MS, so as to study the pharmacokinetic behavior of the compounds of the disclosure in mice and evaluate the pharmacokinetic characteristics thereof.
An appropriate amount of sample was weighed, and added with 0.1% hydroxyethyl cellulose/0.5% TWEEN®80 to a final volume to give 0.5 mg/ml solution for intragastric administration.
Whole blood was anticoagulated with EDTA-K2 and centrifuged, the supernatant was removed, and the residue was frozen at −20° C. until sample analysis. […] The plasma samples were treated in the same manner as that employed for plasma samples of the intragastrically administered group. Plasma samples were analyzed by LC-MS/MS, sample pretreatment was performed using protein precipitation method, the linear range of sample analysis was 1-2000 ng/ml, and the lowest quantification limit was 1 ng/ml.

Where [3] appears, read: male, ICR, mouse, plasma, po, mice, single intragastric administration, 5 mg/kg, Mean ± SD.
Setting [4] is: male, ICR, mouse, plasma, mice, single intravenous administration, 2 mg/kg, Mean ± SD.

Like-named read-outs stand apart in the source and are kept apart here.

Turning to `CCN1CCC(c2ccc(Nc3ncc(F)c(-c4cc(F)c5c(c4)C4(CCCC4)C(C)=N5)n3)nc2)CC1` [Example 12, N-(5-(1-ethylpiperidin-4-yl)pyridin-2-yl)-5-fluoro-4-(7′-fluoro-2′-methylspiro [cyclopentane-1,3′-indol]-5′-yl)pyrimidine-2-amino], in data set [1], the IC50 was 183 nM and the “Inhibitory activity on proliferation of the MDA-MB-231 cell line, in words” value is “significant inhibitory activity”.
In general, clearance refers to the volume of plasma or blood freed of the substance per unit of time. For `CCN1CCN(Cc2ccc(Nc3ncc(F)c(-c4cc(F)c5nc(C)n(C(C)C)c5c4)n3)nc2)CC1` [LY2835219, reference compound], the IC50 in data set [1] was found to be 229 nM. In data set [2] (setting [3]), the AUC(0-t) was 756 ± 34 ng·h/mL and the AUC(0-inf) was 765 ± 34 ng·h/mL. Moreover, in data set [2] (setting [4]), the AUC(0-t) turned out to be 674 ± 82.1 ng·h/mL and the AUC(0-inf) was 679 ± 81 ng·h/mL. Further, the clearance in data set [2] (male, ICR, mouse, plasma, mice, single intravenous administration, 2 mg/kg, Mean ± SD, read-out: Clearance rate Cl) stood at 49.6 ± 5.72 mL/min/kg.
Usually bioavailability stands for dose-corrected exposure relative to a reference, in per cent. A low value points to little systemic uptake. As a reminder, the MRT is a mean duration of stay, worked out from the concentration-time curve. As for `CC1=Nc2c(F)cc(-c3nc(Nc4ccc(C5CCN(C)CC5)cn4)ncc3F)cc2C12CCCC2` [Example 17, 5-Fluoro-4-(7′-fluoro-2′-methylspiro[cyclopentane-1,3′-indol]-5′-yl)-N-(5-(1-methylpiperidin-4-yl)pyridin-2-yl)pyrimidine-2-amino], in data set [1], the IC50 was found to be 110 nM and the “Inhibitory activity on proliferation of the MDA-MB-231 cell line, in words” value is given as “significant inhibitory activity”. This compound also gave a bioavailability in data set [2] (male, ICR, mouse, plasma, oral, mice, intragastric 5 mg/kg vs intravenous 2 mg/kg) of 75.1%. For the same compound, in data set [2] (setting [3]), the AUC(0-t) was 2130 ± 96.9 ng·h/mL, the AUC(0-inf) amounted to 2500 ± 387 ng·h/mL, the half-life is 8.38 ± 3.16 h and the mean residence time (MRT) worked out at 9.45 ± 1.05 h. Also, the Cmax in data set [2] (male, ICR, mouse, plasma, po, mice, single intragastric administration, 5 mg/kg, Mean ± SD, read-out: Blood concentration Cmax) was determined as 134 ± 11.8 ng/mL. In addition, the Vd in data set [2] (male, ICR, mouse, plasma, mice, single intravenous administration, 2 mg/kg, Mean ± SD, read-out: Apparent volume of distribution VZ) is 19.8 ± 0.81 L/kg. For the same compound, in data set [2] (setting [4]), the AUC(0-t) amounted to 1140 ± 77.8 ng·h/mL, the AUC(0-inf) stood at 1327 ± 4 ng·h/mL, the half-life was 9.1 ± 0.26 h and the MRT worked out at 7.51 ± 0.28 h. Moreover, the “Clearance rate Cl” value in data set [2] (mice, single intravenous administration, 2 mg/kg, Mean ± SD) is listed as 25.2 ± 1.72 mL/min/kg. The “Bioavailability and half-life in mice, in words” value in data set [2] (relative to LY2835219) is “higher bioavailability and longer half-life”.

Source of the values: patent US11091476B2, “Protein kinase inhibitors, preparation method and medical use thereof” (Gan & Lee Pharmaceuticals, priority 2015, dated 2021).
